# Source: patent US5451411A, “Methods and compositions for the oral delivery of therapeutic agents” (University of Washington, priority 1993, dated 1995)
# Columns and labels:
# [1] = tested on: mouse anti-TGF-β1 monoclonal antibody, 1D11; assay: ELISA measured binding activity (immunoreactivity) of TGF-β1
# Description: The ability of released TGF-β1 from both untreated and acid treated beads (as described above) to be recognized (bound) by a monoclonal antibody was assayed by ELISA as follows. An enzyme linked immunosorbent assay (ELISA) was used to quantitate the amount of immunoreactive TGF-β1 released from the untreated (PBS) and acid treated (HCl) alginate beads. The ELISA was based on the ability of a mouse anti-TGF-β1 monoclonal antibody, 1D11 (Bristol-Myers Squibb, Seattle, WA), to bind to the TGF-β1 molecule. When the 1D11 antibody was coated on 96-well immunoassay plates it captured TGF-β1 from the applied sample and standard solutions. Captured TGF-β1 was then bound by biotinylated 1D11 antibody which in turn was bound by a horseradish peroxidase/avidin D conjugate (Vector Labs cat #A-2004). A color reaction occurred by adding a chromophore/substrate solution of 3,3',5,5'-tetramethylbenzidine in CPB containing hydrogen peroxide. The reaction was stopped with the addition of 1 N sulfuric acid and the A450 was determined by a plate reader. Concentrations of the unknown samples were quantified relative to a TGF-β1 standard curve run on the same plate.
# The immunoreactivity of TGF-β1 in solution in the presence of anionic amino acids, polyanions and polycations was studied using the ELISA procedure described in Example 2. To 1 mg/mL solutions of TGF-β1 in 5 mM HCl was added from 0 to 0.14%(w/v) of glutamic acid, aspartic acid, poly-L-aspartic acid (PLAA, Mw=13 kDa), sodium carboxymethyl cellulose (Na CMC, high viscosity), or polyacrylic acid (PAA, 2, 90 or 750 kDa). The reactivity of the TGF-β1 was then determined by the ELISA procedure, as described in Example 2.
# Next, the ability of the additives to […] was investigated. Alginate solutions were prepared in accordance with the procedure of Example 1, incorporating 50 μg of TGF-β1, 0-0.15% (w/v) of sodium alginate and 0.1-1.0 mg (up to 0.125% w/v) of PAA (750 kDa), PLAA (13 kDa), NaCMC high viscosity or glutamic acid. The immunoreactivity of TGF-β1 was determined by ELISA as described in Example 2.
# Alginate beads were prepared according to the procedure of Example 1 incorporating 50 μg TGF-β1 and 0.1-1.0 mg of additives. […] In addition, Poly-L-Lysine (PLL;123 kDa) was incorporated as a potential polycationic competitor. The additives were incorporated at an alginate:additive w/w ratio of from 75:10 to 75:1 as indicated below in Table 3.
# To further assess the effect of amount of PAA incorporation on immunoreactivity of released TGF-β1, alginate beads were prepared by incubating TGF-β1 and PAA (90 kDa) for either 5 or 60 minutes (see FIG. 7) in w/w ratios of 75:1, 75:6 and 75:10, followed by dilution, addition of alginate, and bead formation in 1% CaCl2. The beads were acid treated in 0.1 N HCl at 37° C. for 30 minutes and then incubated at 37° C. in PBS, pH 7.4.
# [2] = tested on: mink lung epithelial cells (ATCC #CCL64); assay: Growth inhibitory assay (GIA) bioactivity of released TGF-β1; format: cell-based; conditions: acid treated beads 75:10 w/w PAA 90 kDa; PBS pH 7.4
# Description: Alginate beads containing TGF-β1 and 90 kDa PAA (75:10 w/w in alginate:PAA) were prepared following the procedure of Example 1, and were acid treated for 30 minutes at 37° C. in 0.1 N HCl, as described in Example 2. The beads were then placed in PBS, pH 7.4, and the immunoreactivity of released TGF-β1 was determined by ^125 I radiolabel and ELISA, as described in Example 2. In addition, a growth inhibitory assay (GIA) was used to determine the bioactivity of the TGF-β1. The GIA measures the ability of TGF-β1 to inhibit the growth of mink lung epithelial cells (ATCC #CCL64) (T. Ikedaet al., "Human Transforming Growth Factor Type β2: Production By a Prostatic Adenocarcinoma Cell Line, Purification and Initial Characterization," Biochemistry 26:2406-2410 (1987)). The activity of the growth factor was determined by the inhibitory response of the cells to different concentrations of TGF-β1. Cell viability was based on the enzymatic cleavage by metabolically active cells of a tetrazolium salt into an orange/red formazan product. Prior to the assay cells were trypsinized and plated in a 96-well flat bottomed plate (Costar) at a concentration of 1000 cells/well. […] The cells were then incubated for 7 hours and the plates read on a microplate reader at an absorbance of 450 nm with a 630 nm reference filter. The specific activity of a sample was calculated relative to the reference material.
# [3] = format: physicochemical
# Description: Beads prepared in accordance with the procedure of Example 1 and containing 50 μg of ^125 I-TGF-β1 in 3.75-7.5 mg (original weight of alginate) were transferred to 15.0 mL polypropylene tubes containing 13.0 mL of PBS or of 0.1 N HCl at 37° C. In some cases, 1% BSA was added to the release media. The polypropylene tubes were gently shaken using a orbital shaker (200 rotations/minutes). At selected times, 100 μL aliquots were taken and counted for radioactivity. Care was taken so that aliquots contained no beads or bead fragments. The cumulative ^125 I-TGF-β1 released from the beads was calculated after correcting for volume changes. After 24 hours, the beads in 0.1 N HCl were transferred to PBS.
# Alginate beads containing TGF-β1 and 90 kDa PAA (75:10 w/w in alginate:PAA) were prepared following the procedure of Example 1, and were acid treated for 30 minutes at 37° C. in 0.1 N HCl, as described in Example 2. The beads were then placed in PBS, pH 7.4, and the immunoreactivity of released TGF-β1 was determined by ^125 I radiolabel and ELISA, as described in Example 2. In addition, a growth inhibitory assay (GIA) was used to determine the bioactivity of the TGF-β1. The GIA measures the ability of TGF-β1 to inhibit the growth of mink lung epithelial cells (ATCC #CCL64) (T. Ikedaet al., "Human Transforming Growth Factor Type β2: Production By a Prostatic Adenocarcinoma Cell Line, Purification and Initial Characterization," Biochemistry 26:2406-2410 (1987)). The activity of the growth factor was determined by the inhibitory response of the cells to different concentrations of TGF-β1. Cell viability was based on the enzymatic cleavage by metabolically active cells of a tetrazolium salt into an orange/red formazan product. Prior to the assay cells were trypsinized and plated in a 96-well flat bottomed plate (Costar) at a concentration of 1000 cells/well. After allowing the cells to attach, samples containing the TGF-β1 and a reference standard were diluted to concentrations ranging from 1000 to 1.95 pg/ml and added to the wells. The cells were incubated for four days after which time a 100 μL solution containing 25 μg of sodium 3"-[1-(phenylamino)-carbonyl]-3,4-tetrazolium-bis(4-methoxy-6-nitro) benzene sulfonic acid hydrate (Diagnostic Chemicals, Ltd.) and 5 mM phenazine methosulfate (Aldrich) in media was added to each well. The cells were then incubated for 7 hours and the plates read on a microplate reader at an absorbance of 450 nm with a 630 nm reference filter. The specific activity of a sample was calculated relative to the reference material.
# [4] = acid treated beads 75:10 w/w PAA 90 kDa, PBS pH 7.4
substance,measurement,setting,value
"TGF-β1: TGF-β1 (1 mg/mL in 5 mM HCl) obtained from Bristol-Myers Squibb (Seattle, WA)",Effect of hydrolysis time on ELISA measured binding activity of TGF-β1,"[1]; 0.1 N HCl, 37° C., 0.25-24 hr",no significant differences
same,TGF-β1 released and immunoreactive (ELISA),[1]; [4],over 80%
same,"% Binding Activity of released TGF-β1, HCl","[1]; alginate beads acid treated in 0.1 N HCl, no additive",14%
same,"% Binding Activity of released TGF-β1, PBS","[1]; alginate beads not acid treated (PBS), no additive",0%
same,"ELISA binding activity of TGF-β1 released from beads alone, in words",[1]; beads without PAA,no binding activity
same,"Immunoreactivity of TGF-β1, in words","[1]; released from calcium-alginate beads, in presence of alginate alone, or in presence of PAA (750 kDa)",little immunoreactivity
same,"Immunoreactivity of TGF-β1 with alginate, in words","[1]; solution, 0.015% alginate, no additive",no immunoreactivity
same,"% Active TGF-β1, 0% alginate","[1]; solution, % Alginate (w/v) 0",100%
same,"% Active TGF-β1, 0.0015% alginate","[1]; solution, % Alginate (w/v) 0.0015",65%
same,"% Active TGF-β1, 0.015% alginate","[1]; solution, % Alginate (w/v) 0.015",0%
same,"% Active TGF-β1, 0.15% alginate","[1]; solution, % Alginate (w/v) 0.15",0%
same,TGF-β1 bioactive (GIA),[2],more than 85%
same,Effect of acid treatment time on dissolution profiles and TGF-β1 release rates,"[3]; 0.1 N HCl 37° C. 0.25-24 hr, then PBS pH 7.4",little difference
same,Total release of TGF-β1 (125I radiolabel),[3]; [4],90%
